Assay results from patent US9345682B2, “Inhibition of STAT3 signal transduction for human cancer therapy” (University of South Florida, priority 1999, dated 2016).
Entries after “also recorded” stand apart in the source; their conditions may differ.

Columns and labels:
STAT3 = experiment: EMSA of constitutive STAT3 DNA-binding activity in MDA-MB-468 breast carcinoma cells; type: cell-based, human; conditions: MDA-MB-468 cells; dose-dependent
Method: FIG. 6: Src and JAK Inhibitors Block Growth and STAT3 Activation in Breast Carcinoma Cells. MDA-MD-468 cells are treated with inhibitors of EGF receptor (PD158780), Src (PD180970), or JAKs (AG490), and effects on cell growth (Panel A) and STAT3 DNA-binding activity (Panel B) are determined.
STAT DNA-binding activity in human breast cancer cell lines is examined by electrophoretic mobility shift assays (EMSA) (Garcia et al., 1997, Cell Growth Diff. 8:1267-1276). In these experiments, EMSAs are performed using the ^32P-labeled sis-inducible element (SIE) as a probe to detect STAT DNA-binding activity in nuclear extracts of cells. This synthetic DNA oligonucleotide probe is a high-affinity mutant of the c-fos SIE, called hSIE, that binds both STAT1 and STAT3 (Yu, et al., 1995, Science 269:81-83). […] This activation is constitutive and occurs in the absence of exogenous EGF stimulation. By contrast, STAT3 activation is not detected in any of the three cell lines derived from normal breast tissue.
The involvement of these, and other, tyrosine kinases in STAT3 activation is tested using specific inhibitors of JAK family kinases, and the EGF receptor and Src family kinases.

Bcl-xL = Bcl-xL expression (RT-PCR, Western blot) in U266 cells; type: cell-based, human; parameters: dose or concentration left out as unconfirmed
Method: Cells are lysed in a buffer composed of 50 mM Tris-Cl, pH 7.4, 5 mM EDTA, 150 mM NaCl, and 0.5% Triton-X 100 containing 1 mg/ml leupeptin and aprotinin, and 1 mM PMSF. Protein content of the cell lysates is quantified by the Bradford assay (Bio-Rad), and […] total protein is dissolved in Laemmli SDS-PAGE sample buffer prior to separation by 10% SDS-PAGE. Proteins are transferred to PVDF membrane and Western blot analysis is performed by standard techniques with ECL detection (Amersham). The Bcl-xL antibody, clone 124 (Dako), is used at a 1:2000 dilution. The Bcl-xL, antibody, clone S-18 (Santa Cruz Biotechnology), is used at a 1:500 dilution. Blots are quantified by densitometry and expression levels were normalized to b-actin (Sigma).
Total RNA is isolated by lysis in guanidine isothiocyanate followed by centrifugation through a cesium chloride gradient. cDNA is prepared from 200 ng of total RNA in a […] reaction with AMV-RT (Boehringer-Mannheim). […] Tem ml of PCR products are electrophoresed on a 5% acrylamide gel and quantified by phosphorimaging using ImageQuant software (Molecular Dynamics).

U266 cells = experiment: Cell cycle analysis and spontaneous cell death of U266 cells; type: cell-based, human
Method: For surface detection of the Fas receptor, 10^6 cells are suspended in […] PBS with 2.5 mg/ml mouse IgM (Sigma) and […] UB2 antibody (MBL) or IgG1, isotype control serum (Dako). Following 30 min incubation at room temperature, cells are washed with PBS, and incubated in the dark for 30 min with goat anti-mouse Ig-FITC. Fluorescence is measured on a FACScan flow cytometer and analyzed using CellQuest software (Becton Dickinson). For cell cycle analysis, 10^6 cells are fixed in ice-cold ethanol for a minimum of 2 h, washed with PBS, and stained with 5 mg/ml propidium iodide (PI) and […] at 37° C. for 30 min prior to analysis by flow cytometry. Sensitivity to Fas-mediated apoptosis is determined by exposing cells to 500 ng/ml agonistic antibody (CH-11, MBL) or 100 ng/ml Fas ligand (Alexis) for 18-24 h. Apoptosis is measured by staining with Annexin V-FITC (Clontech) and flow cytometry analysis. Fas-specific death is calculated as (% Annexin V positive cells in the CH-11 treated population)−(% Annexin V positive cells in the IgM control population). Programmed cell death in cells transfected with the bicistronic green fluorescent protein vectors (pIRES-EGFP or pIRES-Stat3b) is analyzed after staining with Annexin V-PE (Pharmingen) by two color flow cytometry analysis. […]

MPC11 tumors = experiment: MPC11 myeloma tumor growth in vivo; parameters: species or system BALB/c mice
Method: Mice and tumor formation in vivo. Six- to eight-week old female BALB/c mice are obtained from the National Cancer Institute (Frederick, Md.). Cohorts of 3-5 mice per group are used for these experiments. Mice are shaved on the right flank and injected subcutaneously (s.c.) with 5×10^5 of either MOPC or MPC11 cells in […] of PBS to induce tumors.
In vivo treatment with AG-490 and IL-12. When tumors reach about 5 […] in diameter, AG-490 treatment of tumors is initiated and continued daily for 7-10 days. For MOPC tumors, injections of 0.85 mg/day of AG-490 are given intratumorally, supplemented with 0.5 mg/day of AG-490 i.p. For MPC11 tumors, the intratumoral treatment is halved while the i.p. dose remains the same. Control mice receive 50% DMSO vehicle alone in the same volume as the AG-490 treatment group. Recombinant IL-12 is given s.c. at either 100 ng or 200 ng every other day. Tumor growth is monitored daily by measuring two perpendicular tumor diameters with a caliper, and tumor volume was calculated according to the formula V=0.52*a*b(a+b)/2 (a=smallest superficial diameter; b=largest superficial diameter).

MOPC tumors = experiment: TUNEL assay of MOPC tumors; type: in vivo, BALB/c mice; conditions: regressing MOPC tumors
Method: Terminal deoxynucleotidyltransferase-mediated dUTP-Digoxigenin nick-end-labeling (TUNEL) assay. MOPC tumors that receive either AG-490 or 50% DMSO treatment are used for this assay. Three-μm sections from paraffinized tissues are dewaxed and rehydrated according to standard protocols. After incubation with proteinase K (30 min at 21° C.), the TUNEL reaction mixture (Boehringer Mannheim, Indianapolis, Ind.) is added to rinsed slides, which are incubated in a humidified chamber for […] at 37° C. This is followed by incubating with Converter-AP (50 ml) and substrate solution (50 ml). The reaction is visualized by light microscopy.

## N#C/C(=C\c1ccc(O)c(O)c1)C(=O)NCc1ccccc1 [AG490]
STAT3
  constitutive STAT3 activation (STAT3 DNA-binding activity): effectively blocked
Bcl-xL; AG490, 24 hours
  bcl-x mRNA expression: significant reduction
Bcl-xL; AG490, 30 hours
  Bcl-xL protein levels: nearly absent
U266 cells; AG490, 72 hours
  spontaneous cell death: extensive spontaneous cell death
U266 cells; AG490 for 48 h
  cells accumulating in G1: 70%
MPC11 tumors; MPC11 tumors
  time to tumor regrowth or metastasis after termination of treatment: 4 to 7 days
MPC11 tumors; pre-existing MPC11 tumors, all treated mice
  MPC11 tumor response: rapid rejection; also recorded: all of the tumors in AG-490-treated mice regressed
MOPC tumors
  apoptotic tumor cells (TUNEL): high numbers of apoptotic cells
